Results: patent US20030234382A1, “Sterilizing composition and method for sterilizing using the same” (NIPPON PEROXIDE CO., LTD., priority 2002, published 2003)

System: chaetomium spore
Test: Sterilizing power test (D value) against chaetomium spores
Format: cell-based
Details: 40° C.; chaetomium spore solution 4×10^6 CFU/ml; peracetic acid and agent concentrations per experiment (c1-c3)
Protocol: 95 g of tap water was added to 5 g of an equilibrated peracetic acid solution containing 4 wt % of peracetic acid, 16 wt % of hydrogen peroxide and 15 wt % of acetic acid, and the resultant mixture was stirred to prepare a uniform aqueous solution. A peracetic acid concentration of the aqueous solution thus prepared was 2,000 ppm.
Each of sterilizing power test sample solutions was prepared by adding a predetermined amount of each of peracetic acid sterilizing power-improving agents shown in the following Table 1 to the peracetic acid aqueous solution prepared in the above paragraph (a) and stirring the mixture.
100 ml of the above prepared test sample solution was placed in an Erlenmeyer flask, and was maintained at 40° C. 1 ml of a chaetomium spore solution having an inoculated bacteria number of 4×10^6 CFU/ml was inoculated therein, and 1 ml of a sample was taken from the Erlenmeyer flask respectively at 10 seconds, 20 seconds, 30 seconds, 60 seconds and 120 seconds after the inoculation. […] Thereafter, a number of live bacteria remaining in each sample optionally diluted was measured in accordance with plate mix-diluting cuture method using a potato dextrose agar medium, and a D value (time (unit: minute) taken to reduce a bacteria number to 1/10) was determined as a standard of sterilizing power. […]

## OCCc1ccccc1 [compound 8]
  D40 (D value: time taken to reduce a bacteria number to 1/10): 238 min
